Series [1] concerns the target T1, PSMA receptor in LNCaP cells (PSMA+, GRPR-) (Homo sapiens, UniProt Q04609).
T1 construct: Briefly, LNCaP 10 5 cells per well; host or cells: LNCaP cells
The series is described as follows: Cell-based competitive binding assay in LNCaP cells against [68Ga]Ga-PSMA-10. The following applies: 10^5 cells/well, against [68Ga]Ga-PSMA-10 0.75 nM, analyte 0–5000 nM, 45 min, gamma counter, quadruplicate.
Description: Each value was measured in quadruplicate.
Cell Culture & cell assays
In vitro and in vivo experiments were performed with the following cell lines: the GRPR positive PC -3 cells
supplemented with 10% fetal calf serum and 2 mM L -glutamine (Invitrogen, Carlsbad, CA, USA). Cells
were grown at 37 °C in humidified air with 5% CO 2. Trypsin-ethylenediaminetetraacetic acid (trypsin -
EDTA; 0.25% tryps in, 0.02% EDTA, Invitrogen) was used for cell harvesting.
Determination of Binding Affinity in LNCaP and PC -3 cells
3-5 Briefly, LNCaP 10 5 cells per well
PSMA-10, precursor purchased from ABX, Radeberg , Germany) and an ascending series of 12 different
45 min). This mixture was removed after incubation and the wells were washed on a multiscreen vacuum
manifold (Millipore, Billerica, MA) three times with PBS. The following detection of cell-bound
radioactivity was measured using a gamma counter (Packard Cobra II, GMI, Minnesota, USA).
fitted with a nonlinear regression algorithm (GraphPad Software) to determine the 50% inhibitory
concentration (IC50) values.
min. After incubation the mixture was removed, the wells were washed with PBS and the cell -bound
radioactivity was measured using a gamma counter (Hidex AMG - Automated Gamma Counter).

Series [2] addresses PSMA (LNCaP, PC-3 PIP). The settings on record: read-out: Ki, LNCaP (literature), LNCaP cells, literature data, ref 2 (SI); cited from earlier work.
Description: This mixture was removed after incubation and the wells were washed on a multiscreen vacuum manifold (Millipore, Billerica, MA) three times with PBS. The following detection of cell-bound radioactivity was measured using a gamma counter (Packard Cobra II, GMI, Minnesota, USA).
The nature of series [3]: Radio RP-HPLC analysis (elution order). The following applies: radiolabeled ligands; Chromolith RP-18e, 0−100% AcCN (0.1% TFA) in 6 min, 4 mL/min; said to agree with logD.
Series [4] has as its system PC-3 tumors. The settings on record: in vivo; cited from earlier work.
In series [5] the target is T1, PSMA receptor in LNCaP cells (PSMA+, GRPR-). The following applies: standard used at C = 0.75 nM; no reference given; read-out: IC50 of standard radioligand (PSMA); cited from earlier work.

This is an account of results in article PMC11571012, “Synthesis and Preclinical Evaluation of a Bispecific PSMA-617/RM2 Heterodimer Targeting Prostate Cancer” (ACS Medicinal Chemistry Letters, 2024).

Like-named read-outs stand apart in the source and are kept apart here.

T1 sequence (Q04609 whole entry): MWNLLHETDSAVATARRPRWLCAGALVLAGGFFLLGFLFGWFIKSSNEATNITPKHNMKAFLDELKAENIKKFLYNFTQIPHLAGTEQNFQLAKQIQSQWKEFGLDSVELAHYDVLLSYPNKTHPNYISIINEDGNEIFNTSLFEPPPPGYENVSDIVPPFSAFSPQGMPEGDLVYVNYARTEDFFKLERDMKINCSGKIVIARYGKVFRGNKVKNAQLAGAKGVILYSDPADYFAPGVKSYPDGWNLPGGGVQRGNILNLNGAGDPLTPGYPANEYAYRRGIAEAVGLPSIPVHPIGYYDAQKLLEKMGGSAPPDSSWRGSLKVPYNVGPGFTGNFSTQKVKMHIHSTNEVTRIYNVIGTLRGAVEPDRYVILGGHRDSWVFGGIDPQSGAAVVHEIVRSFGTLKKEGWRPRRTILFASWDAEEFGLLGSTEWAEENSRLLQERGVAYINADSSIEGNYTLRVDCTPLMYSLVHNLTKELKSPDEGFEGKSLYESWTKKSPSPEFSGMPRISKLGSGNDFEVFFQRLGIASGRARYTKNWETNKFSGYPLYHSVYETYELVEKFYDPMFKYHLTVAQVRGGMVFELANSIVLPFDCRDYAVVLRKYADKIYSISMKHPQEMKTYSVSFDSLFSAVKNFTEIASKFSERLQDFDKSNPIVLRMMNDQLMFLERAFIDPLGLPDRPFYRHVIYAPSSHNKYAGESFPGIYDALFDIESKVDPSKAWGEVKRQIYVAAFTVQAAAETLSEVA

For the compound `O=C(O)CC[C@H](NC(=O)N[C@@H](CCCCNC(=O)[C@H](Cc1ccc2ccccc2c1)NC(=O)[C@H]1CC[C@H](CNC(=O)CN2CCN(CC(=O)O)CCN(CC(=O)O)CCN(CC(=O)O)CC2)CC1)C(=O)O)C(=O)O` [PSMA-617 (1), vipivotide tetraxetan], the concentration for half-maximal inhibition (IC50) (usually the midpoint of a concentration-inhibition curve) in series [1] was 6.41 nM. Further, in series [2], the Ki (in general, the equilibrium dissociation constant of an inhibitor or competing ligand from its target) is 2.34 nM. For the same compound, the “Elution order in radio RP-HPLC” value in series [3] was “eluted first”. As to `CC(C)C[C@H](NC(=O)C[C@H](O)[C@H](CC(C)C)NC(=O)[C@H](Cc1c[nH]cn1)NC(=O)CNC(=O)[C@@H](NC(=O)[C@H](C)NC(=O)[C@H](Cc1c[nH]c2ccccc12)NC(=O)[C@H](CCC(N)=O)NC(=O)[C@@H](Cc1ccccc1)NC(=O)CN1CCC(NC(=O)CN2CCN(CC(=O)O)CCN(CC(=O)O)CCN(CC(=O)O)CC2)CC1)C(C)C)C(N)=O` [[68Ga]Ga-RM2] [metal not drawn], the Kidneys uptake in series [4] is on record as 3.34 ± 0.54 % ID/g. Regarding “[Glu-urea-Lys(Ahx)]2-HBED-CC [[^68Ga]Ga-PSMA-10]”, the IC50 in series [5] is 3.8 ± 1.8 nM.
